These are literature values, as cited in patent publication US12509462B2, “3-(phenylsulfonyl)-[1,2,3]triazolo[1,5A]quinazolin-5(4H)-one derivatives” (BIOVERSYS AG, priority 2018, dated 2025).

SMILES strings stand for the structures.

This series has as its system hla, psmα and pvl. The following applies: across all four agr groups; cited from earlier work.

In the case of `CC(C)c1ccc(S(=O)(=O)c2nnn3c2nc(O)c2ccccc23)cc1` [Savirin, reference compound], the “Modulation of AgrA-regulated toxin gene transcription such as hla, psmα and pvl” value was “potent modulator”.
